Experimental data as given in patent publication US20040224377A1, “Compositions and methods to quench light from optical reactions” (priority 2003, published 2004).

How the values were obtained:
Assay type in all cases: biochemical
[1] = test system: red click beetle luciferase; test: Quenching phosphorescence from white luminometer plate, signal/background with red click beetle luciferase (Example IV); settings: relative to phosphorescence S/B before dye
Method: (§1) Stocks of Amaranth (Aldrich, 120561), Benzopurpurin 4B (Aldrich # 22882), and Fluorescence Brightener 28 (Aldrich 475300) were prepared in DMSO (Sigma) at 100 μM. Luminometer plates (96-well) were purchased from Dynex Technologies. The luminometer plates were broken into pieces that would fit into single luminometer tubes (12 mm diameter) purchased from Promega Corporation. All experiments were performed in a lab under normal fluorescent lighting.
(§2) The experiment measured the signal/background ratio before and after the addition of colored compounds or DMSO. Luminescence measurements were taken from the empty luminescent tube in each experiment to quantitate background. A piece of white luminescent plate, 100 μl of Bright-Glo™ Reagent prepared according to the manufacturer's instructions (Promega Corporation), and 100 μl of Glo Lysis Buffer (Promega Corporation) were placed into the luminescent tube, and the luminescence was again measured. […] 2 μl of DMSO or one of the dyes in DMSO were then added to the tube, the sample was mixed, and the luminescence was measured a third time. This measurement captured the amount of luminescence emitted through the now-colored reagent or the reagent containing the DMSO carrier. Finally, 2 μl of luciferase was added to the tube, the sample was mixed, and the luminescence measured a final time. […]

firefly luciferase [2] = test: Quenching phosphorescence from white luminometer plate, signal/background with firefly luciferase (Example IV); settings: relative to phosphorescence S/B before dye
Method: as §1, §2

firefly luciferase [3] = target: firefly luciferase (Photinus pyralis, UniProt P08659); test: Effect of quench reagents on firefly luciferase luminescent reaction (FIGS. 1-3); settings: luminescence normalized to value without the reagent
Method: To test the effect of coelenterazine hh methyl ether on a firefly luciferase luminescent reaction, a luciferase reagent was prepared (270 μM coenzyme A (Pharmacia), 530 μM ATP (Pharmacia), 20 mM Tricine pH 7.8 (Fisher), 1 mM magnesium carbonate (Sigma), 0.1 mM ETDA (Sigma), 2.7 mM magnesium sulfate (Sigma), and 33 mM dithiothreitol (Sigma)) with varying concentrations of beetle luciferin (Promega), both above and below the concentration required for luciferase saturation (940 μM, 470 μM, 235 μM and 117.5 μM, saturation occurs at about 470 μM). […] Luminescence from firefly luciferase was measured by adding 20 μl of firefly luciferase (5×10^−14 moles/reaction) (Promega Corp.) in 1× Cell Culture Lysis Reagent (Promega Corporation) containing 1 mg/ml bovine serum albumin (BSA) to 100 μl of the luciferase reagents. Luminescence was normalized to the value integrated in the absence of coelenterazine hh methyl ether.
To test the effect of Tergitol® NP-9 on the firefly luciferase luminescent reaction, Luciferase Assay Reagent (Promega Corporation) was prepared according to the manufacturer's instructions. […] Luminescence was integrated after adding 20 μl of firefly luciferase (2.5×10^−14 moles/reaction) in 150 mM HEPES pH 7.4 and 1 mg/ml gelatin, to 100 μl of reagent. Luminescence was normalized to the value integrated for no detergent. […]

Renilla luciferase = target: T1, Renilla luciferase (Renilla reniformis, UniProt P27652); test: Selective quench of Renilla luciferase luminescent reaction (Example I); settings: for Fold quench of Renilla luciferase: Luciferase Assay Reagent with 1% Tergitol NP-9, 200 μM coelenterazine hh methyl ether, 1 mM berberine hemisulfate or combinations, initial divided by residual luminescence
T1 sequence (P27652 1-311): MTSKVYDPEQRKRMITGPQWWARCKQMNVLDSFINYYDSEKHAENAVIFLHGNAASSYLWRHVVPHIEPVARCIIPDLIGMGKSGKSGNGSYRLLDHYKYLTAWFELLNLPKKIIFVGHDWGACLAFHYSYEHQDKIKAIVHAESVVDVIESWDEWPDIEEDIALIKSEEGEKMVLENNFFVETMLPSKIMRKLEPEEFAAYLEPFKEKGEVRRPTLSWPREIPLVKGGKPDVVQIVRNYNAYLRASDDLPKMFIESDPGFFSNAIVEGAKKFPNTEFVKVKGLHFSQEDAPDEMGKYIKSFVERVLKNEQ
Method: Each buffer was added to a vial of Luciferase Assay Substrate (pt. El 51, Promega Corporation) to make Luciferase Assay Reagent (LAR) plus the quenching agent(s). […] Luminescence was initiated by addition of 20 μl of enzyme solution to 100 μl of Renilla Luciferase Assay Reagent, and measured. […] Fold quench was calculated as the quotient of the initial Renilla luciferase luminescence divided by the residual Renilla luciferase luminescence.

[4] = test system: horseradish peroxidase (HRP); test: Quenching light from horseradish peroxidase/luminol chemiluminescent reaction (Example III, FIG. 4)
Method: 20 μl of 0.044 mg/ml horseradish peroxidase (HRP), prepared in KPO4, pH 6.5, was added to 100 μl of 50 mM NaHCO3, 2 μM H2O2+/−100 μM berberine hemisulfate. […] 100 μl of 10 mM Luminol (Sigma) in 55 mM NaOH was then added to initiate the chemiluminescent reaction and the luminescence was measured on a luminometer. Luminescence was captured at various times after reaction initiation.

Sequence of firefly luciferase (Photinus pyralis, UniProt P08659) (P08659 whole entry): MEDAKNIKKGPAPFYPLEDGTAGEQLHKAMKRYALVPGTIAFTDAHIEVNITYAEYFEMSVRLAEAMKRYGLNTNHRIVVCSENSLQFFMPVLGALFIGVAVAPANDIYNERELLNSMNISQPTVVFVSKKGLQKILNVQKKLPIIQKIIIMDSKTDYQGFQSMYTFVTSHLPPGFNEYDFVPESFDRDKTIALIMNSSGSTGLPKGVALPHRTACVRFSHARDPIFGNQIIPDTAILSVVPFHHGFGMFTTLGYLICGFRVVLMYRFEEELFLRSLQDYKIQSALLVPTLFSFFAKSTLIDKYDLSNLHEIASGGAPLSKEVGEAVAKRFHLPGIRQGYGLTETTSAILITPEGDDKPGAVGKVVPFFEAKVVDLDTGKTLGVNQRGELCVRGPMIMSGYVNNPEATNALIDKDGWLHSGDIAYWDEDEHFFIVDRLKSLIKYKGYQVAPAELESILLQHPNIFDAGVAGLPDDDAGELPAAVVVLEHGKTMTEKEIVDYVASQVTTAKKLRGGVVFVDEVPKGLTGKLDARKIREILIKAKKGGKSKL

Cc1cc(-c2ccc(N=Nc3cc(S(=O)(=O)[O-])c4ccccc4c3N)c(C)c2)ccc1N=Nc1cc(S(=O)(=O)[O-])c2ccccc2c1N.[Na+].[Na+] [Benzopurpurin 4B]
S/B Improvement [1]: 4500%

O=S(=O)([O-])c1cc(Nc2nc(Nc3ccccc3)nc(N(CCO)CCO)n2)ccc1/C=C/c1ccc(Nc2nc(Nc3ccccc3)nc(N(CCO)CCO)n2)cc1S(=O)(=O)[O-].[Na+].[Na+] [Fluorescence Brightener, Fluorescence Brightener 28]
S/B Improvement (firefly luciferase [2]): 440%

COc1c(Cc2ccccc2)nc2c(Cc3ccccc3)nc(-c3ccccc3)cn12 [coelenterazine hh methyl ether, 2,8-dibenzyl-3-methoxy-6-phenyl-imidazo[1,2-a]pyrazine]
effect on firefly luciferase luminescence (firefly luciferase [3]): not affected

OCCN(CCO)c1nc(N2CCCCC2)c2nc(N(CCO)CCO)nc(N3CCCCC3)c2n1 [dipyridamole]
quench of the Renilla luciferase luminescent reaction (Renilla luciferase; at 1 mM): about 35 fold

Tergitol NP-9
Fold quench of Renilla luciferase (Renilla luciferase): 86.67 fold

berberine hemisulfate
effect on horseradish peroxidase chemiluminescence (FIG. 4) [4]: quenches | quench of horseradish peroxidase-dependent chemiluminescence ([4]; 100 μM berberine hemisulfate, luminol): over 500 fold | Fold quench of Renilla luciferase (Renilla luciferase): 46 fold | effect on firefly luciferase luminescence (firefly luciferase [3]): not affected
